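Growth conditions: 96-well plates. Treatment: test compound, 48 hours, 5 concentrations. Analysis: linear interpolation between bracketing concentrations; unreached endpoints set to highest concentration. Abbreviation: GI50, concentration required for 50% inhibition of growth. The concentration for full growth arrest is given as TGI.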
How the values were obtained:
Assay in all cases: growth of human tumour cells (NCI), 48 h
[1] = tested on: HT29 colon
[2] = tested on: HCT-116 colon
[3] = tested on: SK-MEL-2 melanoma
[4] = tested on: SK-OV-3 ovarian
[5] = tested on: UACC-257 melanoma
[6] = tested on: HOP-92 NSCLC
[7] = tested on: SF-295 CNS
[8] = tested on: UO-31 renal
[9] = tested on: T-47D breast
[10] = tested on: OVCAR-5 ovarian
[11] = tested on: UACC-62 melanoma
[12] = tested on: EKVX NSCLC
[13] = tested on: MDA-MB-231 breast
[14] = tested on: ACHN renal
[15] = tested on: SF-268 CNS
[16] = tested on: HCT-15 colon
[17] = tested on: HS 578T breast
[18] = tested on: HOP-62 NSCLC
[19] = tested on: COLO 205 colon
[20] = tested on: DU-145 prostate
[21] = tested on: SK-MEL-28 melanoma
[22] = tested on: RXF 393 renal
[23] = tested on: SN12C renal
[24] = tested on: OVCAR-3 ovarian
[25] = tested on: NCI-H460 lung
[26] = tested on: NCI-H23 lung
[27] = tested on: PC-3 prostate
[28] = tested on: SK-MEL-5 melanoma
[29] = tested on: M14 melanoma

Nc1ncc(-c2ccc3ncnc(N4CCc5cc(F)c(Cl)cc54)c3c2)cc1CO
GI50 [1]: 950 nM | TGI [1]: 10200 nM | GI50 [2]: 1260 nM | TGI [2]: 5020 nM | GI50 [3]: 1090 nM | TGI [3]: 2890 nM | GI50 [4]: 451 nM | TGI [4]: 2820 nM | GI50 [5]: 644 nM | TGI [5]: 4310 nM | GI50 [6]: 115 nM | TGI [6]: 1530 nM | GI50 [7]: 453 nM | TGI [7]: 3170 nM | GI50 [8]: 154 nM | TGI [8]: 5000 nM | GI50 [9]: 169 nM | TGI [9]: 936 nM | GI50 [10]: 422 nM | TGI [10]: 12100 nM | GI50 [11]: 266 nM | TGI [11]: 1610 nM | GI50 [12]: 259 nM | TGI [12]: 1930 nM | GI50 [13]: 697 nM | TGI [13]: 6540 nM | GI50 [14]: 365 nM | TGI [14]: 20500 nM | GI50 [15]: 663 nM | TGI [15]: 7890 nM | GI50 [16]: 798 nM | TGI [16]: 5250 nM | GI50 [17]: 404 nM | TGI [17]: 2940 nM | GI50 [18]: 776 nM | TGI [18]: 5120 nM | GI50 [19]: 1170 nM | TGI [19]: 2820 nM | GI50 [20]: 619 nM | TGI [20]: > 41800 nM | GI50 [21]: 393 nM | TGI [21]: 5210 nM | GI50 [22]: 318 nM | TGI [22]: 1170 nM | GI50 [23]: 435 nM | TGI [23]: 11200 nM | GI50 [24]: 468 nM | TGI [24]: 4840 nM | GI50 [25]: 413 nM | TGI [25]: 3560 nM | GI50 [26]: 803 nM | TGI [26]: 3720 nM | GI50 [27]: 343 nM | TGI [27]: 25100 nM | GI50 [28]: 838 nM | TGI [28]: 2200 nM | GI50 [29]: 543 nM | TGI [29]: 3900 nM

From PubChem BioAssay (NCI)
